From paper PMC9817970 (Cancers, 2022)

Tests used:
[1] = system: GIST-T1 cells; experiment: Cell viability assay (CellTiter-Glo); assay type: cell-based; conditions: Homo sapiens, GISTT1; 72 h; concentration causing half-maximal growth inhibition
Protocol: (§1) GIST-T1 (Cosmobio, Tokyo, Japan, # PMC-GIST01C-COS) cells were cultured in DMEM (Welgene, # LM001-05) and HMC1.2 (Merck, Darmstadt, Germany, # SCC062) cells were cultured in IMDM (Welgene, # LM004-01). Parental Ba/F3 (DSMZ, Braunschweig, Germany, # ACC300) cells were cultured in RPMI (Welgene, # LM011-51) with 10 ng IL-3/mL (Enzo, # ALX-201-821). The culture media was supplemented with 10% fetal bovine serum and 1% penicillin/streptomycin solution. The cells were maintained in a humidified atmosphere containing 5% CO2 at 37 °C.
(§2) Cells (GIST-T1: 5.0 × 10^3; HMC1.2: 1 × 10^4) were seeded in 96-well plates. Each compound was treated in each well at 10 dose points of 3-fold serial dilution. After treatment with each compound for 72 h, CellTiter-Glo solution (Promega, # G7572) was added to each well. Anti-proliferation activity was measured the luminescence using a 96-well plate reader (EnVision 2013).

[2] = system: HMC1.2 cells; experiment: Cell viability assay (CellTiter-Glo); assay type: cell-based, human; conditions: 72 h; for GI50 HMC1.2: inactive = less than 50% inhibition at a concentration of 50 μM; for GI50: Homo sapiens
Protocol: as §1, §2

[3] = biological target: c-KIT (Homo sapiens, UniProt P10721); experiment: Radiometric biochemical kinase assay on c-KIT; parameters: purchased Reaction Biology Corp. (contract assay service); conditions: for IC50 against c-KIT: radiometric biochemical kinase assay, 10 μM ATP, inactive = less than 50% inhibition at a concentration of 10 μM; for IC50: read-out: IC50 against c-KIT; for fold enhanced c-KIT inhibitory activity compared with 6h: versus 6h; for fold decreased c-KIT inhibitory activity relative to 6r: versus 6r
Chain of c-KIT (P10721 26-976): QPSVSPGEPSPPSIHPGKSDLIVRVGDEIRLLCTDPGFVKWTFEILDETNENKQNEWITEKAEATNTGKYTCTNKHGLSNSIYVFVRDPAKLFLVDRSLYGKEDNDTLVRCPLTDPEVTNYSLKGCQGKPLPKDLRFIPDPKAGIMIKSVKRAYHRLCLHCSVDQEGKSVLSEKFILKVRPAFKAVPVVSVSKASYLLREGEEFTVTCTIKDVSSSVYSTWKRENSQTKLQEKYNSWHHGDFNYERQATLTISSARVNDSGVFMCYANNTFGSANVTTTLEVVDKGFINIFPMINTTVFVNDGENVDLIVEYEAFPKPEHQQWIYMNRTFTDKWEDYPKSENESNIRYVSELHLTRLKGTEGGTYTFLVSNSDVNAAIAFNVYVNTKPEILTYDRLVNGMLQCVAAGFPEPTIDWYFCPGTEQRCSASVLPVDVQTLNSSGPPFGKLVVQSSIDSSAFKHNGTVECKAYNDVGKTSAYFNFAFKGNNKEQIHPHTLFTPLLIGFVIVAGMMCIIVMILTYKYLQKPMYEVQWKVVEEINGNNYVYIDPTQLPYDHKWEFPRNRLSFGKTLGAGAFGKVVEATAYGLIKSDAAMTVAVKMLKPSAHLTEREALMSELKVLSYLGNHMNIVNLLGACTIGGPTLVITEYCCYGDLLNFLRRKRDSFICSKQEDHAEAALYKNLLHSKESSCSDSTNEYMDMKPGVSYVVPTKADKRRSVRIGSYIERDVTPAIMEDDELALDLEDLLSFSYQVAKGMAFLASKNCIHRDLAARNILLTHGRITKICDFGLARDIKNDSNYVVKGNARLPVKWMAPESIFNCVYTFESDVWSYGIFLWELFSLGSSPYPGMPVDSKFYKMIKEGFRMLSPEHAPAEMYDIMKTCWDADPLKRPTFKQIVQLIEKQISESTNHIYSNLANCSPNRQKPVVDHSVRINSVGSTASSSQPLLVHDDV
Protocol: Biochemical kinase assays on c-KIT protein kinase were performed at Reaction Biology Corp. (San Diego, CA, USA). […] The kinase assay followed the manufacturer’s instruction. IC50 values were calculated by GraphPad prism 8.0 software (GraphPad Software, San Diego, CA, USA).
Enzymatic inhibitory activities of all synthesized thiazolo[5,4-b]pyridine derivatives against c-KIT were measured using radiometric biochemical kinase assays (Table 1). We first explored the R1 group of the thiazolo[5,4-b]pyridine scaffold.

[4] = system: c-KIT D816V Ba/F3 cells; experiment: Anti-proliferative activity on Ba/F3 cells; assay type: cell-based; conditions: Mus musculus, BaF3
[5] = system: parental Ba/F3 cells; experiment: Anti-proliferative activity on Ba/F3 cells; assay type: cell-based; conditions: Mus musculus, BaF3
Protocol: as §1, §2

| SMILES | GI50 [1] [µM] | GI50 HMC1.2 [2] | IC50 against c-KIT [3] | GI50 [2] [µM] | IC50 [3] [µM] | fold enhanced c-KIT inhibitory activity compared with 6h [3] | fold decreased c-KIT inhibitory activity relative to 6r [3] | GI50 [4] [µM] | GI50 [5] [µM] |
| --- | --- | --- | --- | --- | --- | --- | --- | --- | --- |
| Cc1ccc(NC(=O)c2cscn2)cc1-c1cnc2sc(N)nc2c1 [6a] | > 50 | Inactive ^b | inactive^b | – | – | – | – | – | – |
| Cc1cc(C(=O)Nc2ccc(C)c(-c3cnc4sc(N)nc4c3)c2)no1 [6b] | 33 ± 7.09 | Inactive ^b | inactive^b | – | – | – | – | – | – |
| Cc1ccc(NC(=O)c2csc(-c3ccncc3)n2)cc1-c1cnc2sc(N)nc2c1 [6c] | 33.7 ± 3.45 | Inactive ^b | inactive^b | – | – | – | – | – | – |
| Cc1ccc(NC(=O)c2ccccc2)cc1-c1cnc2sc(N)nc2c1 [6d] | 16.4 ± 2.73 | – | inactive^b | 25.2 ± 2.21 | – | – | – | – | – |
| Cc1cccc(C(=O)Nc2ccc(C)c(-c3cnc4sc(N)nc4c3)c2)c1 [6e] | 3.45 ± 0.41 | – | inactive^b | 11.5 ± 0.62 | – | – | – | – | – |
| Cc1cncc(C(=O)Nc2ccc(C)c(-c3cnc4sc(N)nc4c3)c2)c1 [6f] | 20.9 ± 2 | inactive ^b | inactive^b | – | – | – | – | – | – |
| Cc1ccc(NC(=O)c2cccc(S(C)(=O)=O)c2)cc1-c1cnc2sc(N)nc2c1 [6g] | 10.8 ± 1.06 | – | inactive^b | 36.8 ± 10.9 | – | – | – | – | – |
| Cc1ccc(NC(=O)c2cccc(C(F)(F)F)c2)cc1-c1cnc2sc(N)nc2c1 [6h] | 0.96 ± 0.1 | – | – | 7.26 ± 4.13 | 9.87 | – | – | – | – |
| Cc1ccc(NC(=O)Cc2cccc(C(F)(F)F)c2)cc1-c1cnc2sc(N)nc2c1 [6i] | 7.16 ± 0.87 | – | inactive^b | 9.65 ± 1.06 | – | – | – | – | – |
| Cc1ccc(NC(=O)Nc2cccc(C(F)(F)F)c2)cc1-c1cnc2sc(N)nc2c1 [6j] | 3.31 ± 0.73 | – | inactive^b | 6.35 ± 0.32 | – | – | – | – | – |
| Cc1ccc(NC(=O)c2ccc(N(C)C)c(C(F)(F)F)c2)cc1-c1cnc2sc(N)nc2c1 [6k] | 0.18 ± 0.03 | – | – | 2.27 ± 0.84 | 4.31 | 2.3- to 5.6 fold | – | – | – |
| Cc1ccc(NC(=O)c2ccc(N3CCOCC3)c(C(F)(F)F)c2)cc1-c1cnc2sc(N)nc2c1 [6l] | 0.08 ± 0.01 | – | – | 4.34 ± 1.31 | 1.76 | 2.3- to 5.6 fold | – | – | – |
| Cc1ccc(NC(=O)c2ccc(N3CCN(C)CC3)c(C(F)(F)F)c2)cc1-c1cnc2sc(N)nc2c1 [6m] | 0.27 ± 0.17 | – | – | 3.41 ± 1.49 | 2.17 | 2.3- to 5.6 fold | – | – | – |
| Cc1ccc(NC(=O)c2cc(N3CCOCC3)cc(C(F)(F)F)c2)cc1-c1cnc2sc(N)nc2c1 [6n] | 0.55 ± 0.09 | – | Inactive ^b | 7 ± 2.68 | – | – | – | – | – |
| Cc1ccc(NC(=O)c2cc(N3CCN(C)CC3)cc(C(F)(F)F)c2)cc1-c1cnc2sc(N)nc2c1 [6o] | 0.28 ± 0.08 | – | – | 2.36 ± 0.58 | 5.03 | – | – | – | – |
| Cc1ccc(NC(=O)c2ccc(CN3CCOCC3)c(C(F)(F)F)c2)cc1-c1cnc2sc(N)nc2c1 [6p] | 0.66 ± 0.1 | – | – | 8.55 ± 2.4 | 5.72 | – | – | – | – |
| Cc1ccc(NC(=O)c2ccc(CN3CCS(=O)(=O)CC3)c(C(F)(F)F)c2)cc1-c1cnc2sc(N)nc2c1 [6q] | 0.42 ± 0.07 | – | – | 15.5 ± 3.97 | 3.23 | – | – | – | – |
| Cc1ccc(NC(=O)c2ccc(CN3CCN(CCO)CC3)c(C(F)(F)F)c2)cc1-c1cnc2sc(N)nc2c1 [6t] | 0.12 ± 0.03 | – | – | 6.62 ± 0.75 | 1.25 | – | – | – | – |
| CC(=O)N1CCN(Cc2ccc(C(=O)Nc3ccc(C)c(-c4cnc5sc(N)nc5c4)c3)cc2C(F)(F)F)CC1 [6u] | 0.66 ± 0.08 | – | – | 11.3 ± 0.34 | 4.56 | – | – | – | – |
| Cc1ccc(NC(=O)c2ccc(CN3CCCC(N(C)C)C3)c(C(F)(F)F)c2)cc1-c1cnc2sc(N)nc2c1 (stereo not drawn) [6v] | 0.05 ± 0.01 | – | – | 6.81 ± 0.67 | 0.39 | – | – | – | – |
| Cc1ccc(NC(=O)c2ccc(CN(C)CCN(C)C)c(C(F)(F)F)c2)cc1-c1cnc2sc(N)nc2c1 [6w] | 0.02 ± 0.01 | – | – | 4.99 ± 0.43 | 0.25 | – | – | – | – |
| Cc1ccc(NC(=O)c2ccc(CN3CCN(C)CC3)c(C(F)(F)F)c2)cc1-c1cnc2sc(NC(=O)C3CCCCC3)nc2c1 [7a] | 0.08 ± 0.01 | – | – | 4.58 ± 0.32 | 1.51 | – | 5.3- to 10.8 fold | – | – |
| Cc1ccc(NC(=O)c2ccc(CN3CCN(C)CC3)c(C(F)(F)F)c2)cc1-c1cnc2sc(NC(=O)c3ccccc3)nc2c1 [7b] | 0.1 ± 0.01 | – | – | 5.22 ± 0.59 | 0.74 | – | 5.3- to 10.8 fold | – | – |
| Cc1ccc(NC(=O)c2ccc(N3CCOCC3)c(C(F)(F)F)c2)cc1-c1cnc2sc(NC(=O)C3CCCCC3)nc2c1 [7d] | 8.13 ± 1.81 | inactive ^b | inactive^b | – | – | – | – | – | – |
| CC(=O)Nc1nc2cc(-c3cc(NC(=O)c4ccc(N5CCOCC5)c(C(F)(F)F)c4)ccc3C)cnc2s1 [7e] | 0.23 ± 0.07 | – | – | 14 ± 10.2 | 0.88 | – | – | – | – |
| CC(=O)Nc1nc2cc(-c3cc(NC(=O)c4ccc(CN5CCOCC5)c(C(F)(F)F)c4)ccc3C)cnc2s1 [7f] | 0.3 ± 0.06 | – | – | 28.4 ± 13.3 | 3.63 | – | – | – | – |
| CC(=O)Nc1nc2cc(-c3cc(NC(=O)c4ccc(CN5CCCC(N(C)C)C5)c(C(F)(F)F)c4)ccc3C)cnc2s1 (stereo not drawn) [7g] | 0.07 ± 0.01 | – | – | 4.88 ± 1.18 | 0.18 | – | – | – | – |
| CC(=O)Nc1nc2cc(-c3cc(NC(=O)c4ccc(CN(C)CCN(C)C)c(C(F)(F)F)c4)ccc3C)cnc2s1 [7h] | 0.02 | – | – | 4.98 ± 0.32 | 0.1 | – | – | – | – |
| CCN(CC)CCNC(=O)c1c(C)[nH]c(/C=C2\C(=O)Nc3ccc(F)cc32)c1C [sunitinib, reference compound] | 0.01 | – | – | 2.53 ± 0.35 | – | – | – | 0.58 ± 0.29 | 2.72 ± 0.3 |
